{"source": "ChEMBL document CHEMBL3632591", "about": "“Discovery and structural diversity of the hepatitis C virus NS3/4A serine protease inhibitor series leading to clinical candidate IDX320” (Bioorg Med Chem Lett, 2015)", "key": {"[1]": {"experiment": "Oral bioavailability in Sprague-Dawley rat at 10 mg/kg administered as single dose", "assay_type": "ADME, organism-based", "conditions": "in vivo; call rule not given here"}, "[2]": {"experiment": "AUC (0 to 24 hrs) in CD-1 mouse at 2 mg/kg, po administered as single dose", "assay_type": "ADME, organism-based", "parameters": "dose 2 mg/kg, time < 24 hr, route oral", "conditions": "in vivo"}, "Mus musculus [3]": {"system": "Mus musculus", "experiment": "Toxicity in mouse assessed as effect on central nervous system at 250 mg/kg, po administered as single dose", "assay_type": "organism-based", "conditions": "in vivo"}, "[4]": {"target": "T1, UDP-glucuronosyltransferase 1A1 (Homo sapiens, UniProt P22309)", "T1 sequence (P22309 whole entry)": "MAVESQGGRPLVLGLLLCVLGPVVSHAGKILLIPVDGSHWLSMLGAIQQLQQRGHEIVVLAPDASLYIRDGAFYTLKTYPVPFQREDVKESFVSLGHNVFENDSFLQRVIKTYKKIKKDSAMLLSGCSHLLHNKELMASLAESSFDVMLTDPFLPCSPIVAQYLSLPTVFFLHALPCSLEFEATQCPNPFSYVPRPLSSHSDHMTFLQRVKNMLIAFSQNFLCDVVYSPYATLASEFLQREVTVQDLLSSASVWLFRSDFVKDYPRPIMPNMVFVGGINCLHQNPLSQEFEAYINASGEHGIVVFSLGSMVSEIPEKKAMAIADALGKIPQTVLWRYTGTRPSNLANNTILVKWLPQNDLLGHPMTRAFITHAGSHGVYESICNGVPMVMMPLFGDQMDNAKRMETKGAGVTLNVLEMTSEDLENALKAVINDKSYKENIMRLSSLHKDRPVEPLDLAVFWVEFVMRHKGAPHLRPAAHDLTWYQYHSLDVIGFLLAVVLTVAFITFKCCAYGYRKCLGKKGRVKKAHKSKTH", "experiment": "Inhibition of human UGT1A1", "assay_type": "ADME"}, "[5]": {"experiment": "Cytotoxicity against human HuH7 cells by colorimetric proliferation assay", "assay_type": "cell-based, Huh-7"}, "[6]": {"experiment": "Plasma concentration in Cynomolgus monkey at 2 mg/kg, po administered as single dose measured after 24 hrs", "assay_type": "ADME, organism-based, Macaca fascicularis"}, "[7]": {"experiment": "Volume of distribution in Cynomolgus monkey at 2 mg/kg, iv administered as single dose", "assay_type": "ADME, organism-based, Macaca fascicularis", "conditions": "in vivo"}, "[8]": {"experiment": "Clearance in CD-1 mouse at 2 mg/kg, iv administered as single dose measured after 24 hrs", "assay_type": "ADME, organism-based", "conditions": "in vivo"}, "[9]": {"experiment": "AUCt in Sprague-Dawley rat at 10 mg/kg, po administered as single dose", "assay_type": "ADME, organism-based", "conditions": "in vivo"}, "[10]": {"experiment": "Cmax in Sprague-Dawley rat plasma at 10 mg/kg, po administered as single dose measured after 24 hrs", "assay_type": "ADME, organism-based", "parameters": "dose 10 mg/kg, route oral"}, "[11]": {"experiment": "AUC (infinity) in Cynomolgus monkey at 2 mg/kg, po administered as single dose", "assay_type": "ADME, organism-based, Macaca fascicularis", "parameters": "dose 2 mg/kg, route oral, time infinity", "conditions": "in vivo"}, "[12]": {"target": "Voltage-gated inwardly rectifying potassium channel KCNH2 (Homo sapiens, UniProt Q12809)", "sequence (Q12809 whole entry)": "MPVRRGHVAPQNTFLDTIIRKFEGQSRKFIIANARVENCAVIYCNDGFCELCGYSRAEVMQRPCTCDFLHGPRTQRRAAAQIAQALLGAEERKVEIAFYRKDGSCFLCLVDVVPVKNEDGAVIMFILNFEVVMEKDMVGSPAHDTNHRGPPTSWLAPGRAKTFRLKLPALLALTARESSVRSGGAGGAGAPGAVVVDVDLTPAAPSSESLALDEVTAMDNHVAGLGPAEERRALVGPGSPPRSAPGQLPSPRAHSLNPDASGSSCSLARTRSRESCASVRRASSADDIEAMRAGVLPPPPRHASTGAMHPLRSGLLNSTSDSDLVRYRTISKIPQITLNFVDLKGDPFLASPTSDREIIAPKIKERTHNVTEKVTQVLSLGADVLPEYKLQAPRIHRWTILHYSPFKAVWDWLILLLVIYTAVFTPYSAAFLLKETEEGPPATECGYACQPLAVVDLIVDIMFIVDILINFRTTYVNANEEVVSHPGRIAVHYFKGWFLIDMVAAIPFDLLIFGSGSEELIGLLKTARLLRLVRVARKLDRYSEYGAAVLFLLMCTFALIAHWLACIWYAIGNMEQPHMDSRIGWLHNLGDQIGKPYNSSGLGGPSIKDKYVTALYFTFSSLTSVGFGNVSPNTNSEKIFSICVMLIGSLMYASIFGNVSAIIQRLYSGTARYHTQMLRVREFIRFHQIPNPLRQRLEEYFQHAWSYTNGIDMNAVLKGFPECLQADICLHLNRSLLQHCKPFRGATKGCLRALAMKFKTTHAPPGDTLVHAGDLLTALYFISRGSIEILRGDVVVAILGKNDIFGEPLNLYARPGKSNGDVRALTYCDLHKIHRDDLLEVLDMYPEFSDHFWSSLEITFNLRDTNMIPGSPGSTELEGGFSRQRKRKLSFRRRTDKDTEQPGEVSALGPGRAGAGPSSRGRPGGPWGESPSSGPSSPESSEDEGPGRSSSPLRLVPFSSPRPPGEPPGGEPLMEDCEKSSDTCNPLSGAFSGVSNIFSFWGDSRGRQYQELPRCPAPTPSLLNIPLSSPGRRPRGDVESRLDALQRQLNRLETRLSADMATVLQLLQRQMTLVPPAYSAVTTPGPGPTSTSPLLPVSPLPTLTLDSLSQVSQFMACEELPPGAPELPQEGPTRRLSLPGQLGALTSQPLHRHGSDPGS", "experiment": "Inhibition of human ERG expressed in HEK293 cells", "assay_type": "cell-based"}, "[13]": {"experiment": "Half life in Cynomolgus monkey at 2 mg/kg, po administered as single dose", "assay_type": "ADME, organism-based, Macaca fascicularis", "conditions": "in vivo"}, "[14]": {"experiment": "AUC (infinity) in Sprague-Dawley rat at 2 mg/kg, iv administered as single dose", "assay_type": "ADME, organism-based", "parameters": "dose 2 mg/kg, route intravenous, time infinity", "conditions": "in vivo"}, "[15]": {"experiment": "Inhibition of HCV genotype 4a NS3/4A protease", "parameters": "species or system Hepatitis C virus subtype 4a"}, "Cytochrome P450 2D6": {"target": "Cytochrome P450 2D6 (Homo sapiens, UniProt P10635)", "sequence (P10635 whole entry)": "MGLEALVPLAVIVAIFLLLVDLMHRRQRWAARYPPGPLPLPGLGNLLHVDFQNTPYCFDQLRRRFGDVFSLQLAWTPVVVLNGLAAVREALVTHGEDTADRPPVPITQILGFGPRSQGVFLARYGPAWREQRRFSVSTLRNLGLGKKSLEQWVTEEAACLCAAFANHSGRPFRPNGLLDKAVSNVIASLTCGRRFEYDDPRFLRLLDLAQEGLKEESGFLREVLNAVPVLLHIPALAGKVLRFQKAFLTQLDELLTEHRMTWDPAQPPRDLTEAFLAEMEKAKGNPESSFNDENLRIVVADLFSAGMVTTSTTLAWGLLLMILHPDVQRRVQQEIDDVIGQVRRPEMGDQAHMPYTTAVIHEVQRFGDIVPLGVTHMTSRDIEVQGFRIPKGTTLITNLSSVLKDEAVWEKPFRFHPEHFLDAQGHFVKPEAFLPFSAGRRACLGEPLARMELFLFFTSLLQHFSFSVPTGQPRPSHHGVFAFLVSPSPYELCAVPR", "experiment": "Inhibition of human CYP2D6", "assay_type": "ADME"}, "Mus musculus [16]": {"system": "Mus musculus", "experiment": "Toxicity in mouse assessed as effect on gastrointestinal motility at 250 mg/kg, po administered as single dose", "assay_type": "organism-based", "conditions": "in vivo"}}, "note": "pIC50: −log10 of the molar value."}
{"smiles": "COc1ccc2c(O[C@H]3CCN4C(=O)N(C)CCCCC=C[C@@H]5C[C@@]5(C(=O)NS(=O)(=O)C5(C)CC5)NC(=O)[C@@H]4C3)cc(-c3nc(C(F)(F)F)cs3)nc2c1C", "values": [{"measurement": "bioavailability", "setting": "[1]", "value": 45, "unit": "%"}, {"measurement": "AUC(0-t) at 24 h", "setting": "[2]", "value": 1410, "unit": "ng·h/mL"}, {"measurement": "Activity", "setting": "Mus musculus [3]", "value": "Non-toxic"}, {"measurement": "pIC50", "setting": "[4]", "value": "≤ 5.00"}, {"measurement": "CC50", "setting": "[5]", "value": 52.8, "unit": "µM"}, {"measurement": "concentration at 24 h", "setting": "[6]", "value": 81, "unit": "ng/mL"}, {"measurement": "Vd", "setting": "[7]", "value": 3.5, "unit": "L/kg"}, {"measurement": "clearance", "setting": "[8]", "value": 8, "unit": "mL/min/kg"}, {"measurement": "AUC(0-t)", "setting": "[9]", "value": 3920, "unit": "ng·h/mL"}, {"measurement": "Cmax", "setting": "[10]", "value": 934, "unit": "ng/mL"}, {"measurement": "AUC(0-inf)", "setting": "[11]", "value": 8920, "unit": "ng·h/mL"}, {"measurement": "inhibition (INH)", "setting": "[12]", "value": "Not Active"}, {"measurement": "half-life", "setting": "[13]", "value": 7.6, "unit": "h"}, {"measurement": "AUC(0-inf)", "setting": "[14]", "value": 1770, "unit": "ng·h/mL"}, {"measurement": "pIC50", "setting": "[15]", "value": 9.10}, {"measurement": "pIC50", "setting": "Cytochrome P450 2D6", "value": "≤ 5.00"}, {"measurement": "Activity", "setting": "Mus musculus [16]", "value": "Non-toxic"}]}
